The target of data set [1] is T1, Fatty-acid amide hydrolase 1 (Homo sapiens) (UniProt O00519).
T1 sequence (whole entry): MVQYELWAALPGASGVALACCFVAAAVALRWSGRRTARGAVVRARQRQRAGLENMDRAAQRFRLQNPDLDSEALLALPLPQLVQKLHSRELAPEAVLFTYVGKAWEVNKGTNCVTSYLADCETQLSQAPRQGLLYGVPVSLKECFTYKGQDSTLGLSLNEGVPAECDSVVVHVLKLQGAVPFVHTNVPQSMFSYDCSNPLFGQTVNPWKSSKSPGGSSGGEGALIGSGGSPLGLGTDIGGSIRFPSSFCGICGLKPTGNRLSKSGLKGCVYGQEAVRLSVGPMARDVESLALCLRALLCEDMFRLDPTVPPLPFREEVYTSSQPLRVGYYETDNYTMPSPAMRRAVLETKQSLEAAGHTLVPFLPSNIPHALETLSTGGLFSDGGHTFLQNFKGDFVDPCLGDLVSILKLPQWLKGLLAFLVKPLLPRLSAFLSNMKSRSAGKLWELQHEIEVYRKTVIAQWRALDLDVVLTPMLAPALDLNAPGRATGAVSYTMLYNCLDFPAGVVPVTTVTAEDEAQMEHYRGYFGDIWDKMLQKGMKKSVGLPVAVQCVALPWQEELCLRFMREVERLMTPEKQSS
Briefly: Inhibition of human FAAH assessed as ratio of Kinact to Ki.

The target of data set [2] is T2, Fatty-acid amide hydrolase 1 (Rattus norvegicus) (UniProt P97612).
T2 sequence (whole entry): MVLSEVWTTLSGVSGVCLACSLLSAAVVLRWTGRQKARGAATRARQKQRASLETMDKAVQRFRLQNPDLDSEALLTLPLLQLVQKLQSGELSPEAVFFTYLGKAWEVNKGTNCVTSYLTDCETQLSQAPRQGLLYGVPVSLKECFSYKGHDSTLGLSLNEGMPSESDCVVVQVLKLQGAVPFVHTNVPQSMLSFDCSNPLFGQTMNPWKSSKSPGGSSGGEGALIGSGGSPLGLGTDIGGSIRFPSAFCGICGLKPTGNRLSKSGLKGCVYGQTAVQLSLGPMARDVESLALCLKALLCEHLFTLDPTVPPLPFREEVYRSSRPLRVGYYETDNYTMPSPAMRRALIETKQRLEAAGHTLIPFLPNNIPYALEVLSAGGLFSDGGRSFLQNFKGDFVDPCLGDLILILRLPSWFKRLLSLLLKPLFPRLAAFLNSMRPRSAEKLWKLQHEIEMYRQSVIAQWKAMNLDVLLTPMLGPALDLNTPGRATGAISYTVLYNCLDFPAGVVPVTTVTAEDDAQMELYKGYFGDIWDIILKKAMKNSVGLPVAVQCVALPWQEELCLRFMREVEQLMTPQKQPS
The data set is described as follows: Inhibition of rat FAAH assessed as ratio of Kinact to Ki.

Data set [3] is described as follows: Bioavailability in rat. In kind it is ADME, organism-based. The following applies: in vivo.

The results in this text go back to ChEMBL document CHEMBL1154289, “Structure based design of novel irreversible FAAH inhibitors” (Bioorg Med Chem Lett, 2009).

The structures appear in SMILES notation. The source made the active and inactive calls. The calls are words filed in the database; no cut-off is given here.

`O=C(Nc1cncc2[nH]ccc12)N1CC(CCCc2cccc(Oc3ccc(C(F)(F)F)cn3)c2)C1`: the results for the Ratio in data set [1] and in data set [2] were 881 M⁻¹ s⁻¹ and 5160 M⁻¹ s⁻¹, respectively.

As for `O=C(Nc1cccnc1)N1CC(C/C=C\c2cccc(Oc3ccc(C(F)(F)F)cn3)c2)C1`, in data set [1], the Ratio came out at 782 M⁻¹ s⁻¹. The Ratio entry in data set [2] was “inactive”.

Regarding `O=C(Nc1cccnc1)N1CC(C/C=C/c2cccc(Oc3ccc(C(F)(F)F)cn3)c2)C1`, the Ratio is 2100 M⁻¹ s⁻¹ in data set [1] and 2310 M⁻¹ s⁻¹ in data set [2].

As to `O=C(Nc1cccnc1)N1CC(/C=C\Cc2cccc(Oc3ccc(C(F)(F)F)cn3)c2)C1`, the Ratio worked out at 9000 M⁻¹ s⁻¹ in data set [1] and 5390 M⁻¹ s⁻¹ in data set [2]. Also, the bioavailability (in general, the share of a dose that reaches the circulation, judged against a reference dose that is usually intravenous) in data set [3] was 73%.

On to `O=C(Nc1cccnc1)N1CC(/C=C/Cc2cccc(Oc3ccc(C(F)(F)F)cn3)c2)C1`, for which the Ratio stood at 9340 M⁻¹ s⁻¹ in data set [1] and 2380 M⁻¹ s⁻¹ in data set [2]. In data set [3], the bioavailability was 93%.

As to `O=C(Nc1cccnc1)N1CC(C#CCc2cccc(Oc3ccc(C(F)(F)F)cn3)c2)C1`, the figures for the Ratio in data set [1] and in data set [2] were 861 M⁻¹ s⁻¹ and 465 M⁻¹ s⁻¹, respectively.

As to `O=C(Nc1cccnc1)N1CC(=CCCc2cccc(Oc3ccc(C(F)(F)F)cn3)c2)C1`, the figures for the Ratio in data set [1] and in data set [2] were 621 M⁻¹ s⁻¹ and 1310 M⁻¹ s⁻¹, respectively.

As for `O=C(Nc1cccnc1)N1CC(CCCc2cccc(Oc3ccc(C(F)(F)F)cn3)c2)C1`, the Ratio was found to be 1090 M⁻¹ s⁻¹ in data set [1] and 688 M⁻¹ s⁻¹ in data set [2].

With `Cc1noc(NC(=O)N2CC(CCCc3cccc(Oc4ccc(C(F)(F)F)cn4)c3)C2)c1C`, the results for the Ratio in data set [1] and in data set [2] were 1450 M⁻¹ s⁻¹ and 15300 M⁻¹ s⁻¹, respectively.

On to `O=C(Nc1cccnn1)N1CC(CCCc2cccc(Oc3ccc(C(F)(F)F)cn3)c2)C1`, for which the Ratio in data set [1] is 3030 M⁻¹ s⁻¹; in data set [2], 1840 M⁻¹ s⁻¹.
